Each structure is given as a SMILES string. Values after ≈ are worked out from the molar mass of the structure shown. Read-outs that look alike come from different tables or passages of the source. Where only a bound is given, the exact number is not on record here.

As a reminder, the IC50 is the point on the concentration scale where inhibition reaches its midpoint.

The target in data set [1] is recombinant human MEK 1 (MAPKK) and recombinant human ERK2 (MAPK). Description: Mitogen Activated Protein Kinase (MAPK) assay, two component coupled MEK 1 / ERK2.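 Further: MEK 1-activated ERK2 phosphorylates MBP or Myc peptide with 33P-ATP, filter capture and scintillation counting, inhibitor preincubated with ERK2 30 min at 0 °C, inhibition relative to uninhibited control.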 The format is biochemical. The note with it: separate entries for the same compound = evaluated more than one time.
Data set [2] addresses Epithelial Cell Kinase (ECK) (Homo sapiens, UniProt P29317). Description: biochemical.
Protocol: In this standard pharmacological test procedure, a biotinylated peptide substrate is first immobilized on neutravidin-coated microtiter plates. The test drug, the Epithelial Cell Kinase (ECK), Mg^++, sodium vanadate (a protein tyrosine phosphatase inhibitor), and an appropriate buffer to maintain pH (7.2) are then added to the immobilized substrate-containing microtiter wells. ATP is then added to initiate phosphorylation. After incubation, the assay plates are washed with a suitable buffer leaving behind phosphorylated peptide which is exposed to horse radish peroxidase (HRP)-conjugated anti-phosphotyrosine monoclonal antibody. The antibody-treated plates are washed again and the HRP activity in individual wells is quantified as a reflection of degree of substrate phosphorylation.
Data set [3] relates to SW620. Description: Inhibition of cancer cell growth as measured by cell number, SW620.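 Further: SW620 was included as a cell line with little or no EGFR or HER2/neu expression, in contrast to receptor-overexpressing lines.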 It counts as cell-based, human. The note with it: Homo sapiens, SW-620, 48 h.
Description: (§1) The cell lines were chosen since they overexpressed epidermal growth factor receptor (EGFR) (i.e. A431) or HER2/neu (SKBR3), or had little to no expression of the these receptors (SW620, LOX, MCF7).
Data set [4] concerns SKBR3. Description: Inhibition of cancer cell growth as measured by cell number, SKBR3.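 Further: SK-BR-3 cells were selected as a line overexpressing HER2/neu.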 It counts as cell-based, human. The settings on record: Homo sapiens, SK-BR-3, 48 h.
Description: as §1
In data set [5] the test system is A431. Description: Inhibition of cancer cell growth as measured by cell number, A431.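 Further: human A431 line, picked because it overexpresses epidermal growth factor receptor (EGFR).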 The settings on record: Homo sapiens, A-431, 48 h. The format is cell-based, human.
Description: as §1
Data set [6] concerns human epidermoid tumors (A431). Briefly: In vivo inhibition of the growth of human epidermoid tumors (A431). The settings on record: for S/T = No. Survivors/No. Treated: Day +28 post tumor staging. The method, then: Representative compounds of this invention (listed below) were evaluated in an in vivo standard pharmacological test procedure which measured its ability to inhibit the growth of human epidermoid tumors. […] BALB/c nu/nu female mice (Charles River, Wilmington, MA) were used in this in vivo standard pharmacological test procedure. A unit of 5 X 10^6 cells were injected SC into mice. When tumors attained a mass of between 100 and 150 mg, the mice were randomized into treatment groups (day zero). […] Control animals received no drug. Tumor mass was determined every 7 days [(length X width^2)/2] for 28 days post staging. Relative tumor growth (Mean tumor mass on days 7, 14, 21, and 28 divided by the mean tumor mass on day zero) is determined for each treatment group.

Data set [7] has as its system LOX. Briefly: Inhibition of cancer cell growth as measured by cell number, LOX.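 Further: LOX cells served as a line with low or absent EGFR and HER2/neu expression, in contrast to receptor-overexpressing lines.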 It counts as cell-based, human. The settings on record: Homo sapiens, LOX, 48 h, read-out: IC50 LOX, cell number, Sulforhodamine B, 48 hours exposure; Table 8.
Description: as §1
Data set [8] addresses T1, His-tagged cytoplasmic domain of EGFR (Homo sapiens, UniProt P00533).
T1 construct: containing the EGFR cDNA encoding amino acids 645 - 1186 preceded by Met-Ala-(His)6; made in house; host or cells: Sf9 cells, recombinant baculovirus vHcEGFR52
Briefly: Inhibition of Epidermal Growth Factor Receptor Kinase (EGF-R) using recombinant enzyme.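 Further: radiometric kinase assay measuring radiolabeled phosphate transfer from ATP onto the peptide tyrosine by scintillation counting, control is reaction without compound, background subtracted, IC50 from dose-response curve.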 The settings on record: recombinant enzyme; RR-SRC peptide; average of the number of tests; read-out: IC50. It counts as biochemical.
Protocol: The enzyme used in this assay is the His-tagged cytoplasmic domain of EGFR.
Compounds to be evaluated were made into 10 mg/mL stock solutions in 100% dimethylsulfoxide (DMSO). Prior to experiment, stock solutions were diluted to 500 µM with 100% DMSO and then serially diluted to the desired concentration with HEPES buffer (30 mM HEPES pH 7.4).
For the enzyme reaction, 10 µL of each inhibitor (at various concentrations) were added to each well of a 96-well plate. […] This was allowed to sit for 10 min on ice and was followed by the addition of 5 µl peptide (80 µM final conc.), 10µl of 4X Buffer (Table A), 0.25 µL ^33P-ATP and 12 µL H2O. The reaction was allowed to run for 90 min at room temperature and was followed by spotting the entire volume on to precut P81 filter papers. The filter discs were washed 2X with 0.5% phosphoric acid and radioactivity was measured using a liquid scintillation counter.
The % inhibition of the test compound was determined for at least three different concentrations and the IC50 value was evaluated from the dose response curve. […] CPM(control) is in units of counts per minute and was a number expressing the amount of radiolabeled ATP (g-33P) incorporated into the RR-SRC peptide substrate by the enzyme after 90 minutes at room temperature in the absence of test compound as measured by liquid scintillation counting. The CPM values were corrected for the background counts produced by ATP in the absence of the enzymatic reaction. The IC50 values reported in TABLE 2 are averages of the number of tests conducted.

Data set [9] deals with T2, Kinase insert Domain containing Receptor (KDR: the catalytic domain of the VEGF receptor) (Homo sapiens, UniProt P35968).
T2 construct: KDR: the catalytic domain of the VEGF receptor
Briefly: Inhibition of Kinase insert Domain containing Receptor (KDR).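 Further: KDR phosphorylating a Glu:Tyr 4:1 copolymer with P32- or P33-labelled ATP, Mg++ and vanadate, read as acid-insoluble radiolabel, compared with compound-free reaction.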 The format is biochemical. The note with it: pH 7.2; radioactive format; read-out: KDR IC50 (converted).
Protocol: In this standard pharmacological test procedure, KDR protein is mixed, in the presence or absence of a inhibitor compound, with a substrate peptide to be phosphorylated (a copolymer of glutamic acid and tyrosine, E:Y :: 4:1) and other cofactors such as Mg^++ and sodium vanadate (a protein tyrosine phosphatase inhibitor) in an appropriate buffer to maintain pH (7.2). ATP and a radioactive tracer (either P^32-or P^33- labeled ATP) is then add to initiate phosphorylation. After incubation, the radioactive phosphate associated with the acid-insoluble fraction of the assay mixture is then quantified as reflection of substrate phosphorylation.

The subject of data set [10] is MCF7. Description: Inhibition of cancer cell growth as measured by cell number, MCF7.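 Further: MCF7 was included as a line with little or no EGFR or HER2/neu expression, in contrast to the receptor-overexpressing lines of the panel.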 The note with it: Homo sapiens, MCF7, 48 h, read-out: IC50 MCF7, cell number, Sulforhodamine B, 48 hours exposure; Table 8. The format is cell-based, human.
Description: as §1
The mark [11] stands for this setting: Table 10, 80 mg/kg/dose IP on days 1,5,9.
Setting [12] is: Table 10, 80 mg/kg/dose PO on days 1 through 10.
The mark [13] stands for this setting: read-out: IC50 SKBR3, cell number, Sulforhodamine B, 48 hours exposure, Table 8.
[14] abbreviates: read-out: IC50 A431, cell number, Sulforhodamine B, 48 hours exposure, Table 8.
The mark [15] stands for this setting: read-out: IC50 SW620, cell number, Sulforhodamine B, 48 hours exposure, Table 8.
The mark [16] stands for this setting: Table 11, 80 mg/kg/dose IP on days 1,5 and 9.
[17] abbreviates: Table 11, 80 mg/kg/dose PO on days 1 through 10.

Sequence of Epithelial Cell Kinase (ECK) (P29317 24-976, species assumed): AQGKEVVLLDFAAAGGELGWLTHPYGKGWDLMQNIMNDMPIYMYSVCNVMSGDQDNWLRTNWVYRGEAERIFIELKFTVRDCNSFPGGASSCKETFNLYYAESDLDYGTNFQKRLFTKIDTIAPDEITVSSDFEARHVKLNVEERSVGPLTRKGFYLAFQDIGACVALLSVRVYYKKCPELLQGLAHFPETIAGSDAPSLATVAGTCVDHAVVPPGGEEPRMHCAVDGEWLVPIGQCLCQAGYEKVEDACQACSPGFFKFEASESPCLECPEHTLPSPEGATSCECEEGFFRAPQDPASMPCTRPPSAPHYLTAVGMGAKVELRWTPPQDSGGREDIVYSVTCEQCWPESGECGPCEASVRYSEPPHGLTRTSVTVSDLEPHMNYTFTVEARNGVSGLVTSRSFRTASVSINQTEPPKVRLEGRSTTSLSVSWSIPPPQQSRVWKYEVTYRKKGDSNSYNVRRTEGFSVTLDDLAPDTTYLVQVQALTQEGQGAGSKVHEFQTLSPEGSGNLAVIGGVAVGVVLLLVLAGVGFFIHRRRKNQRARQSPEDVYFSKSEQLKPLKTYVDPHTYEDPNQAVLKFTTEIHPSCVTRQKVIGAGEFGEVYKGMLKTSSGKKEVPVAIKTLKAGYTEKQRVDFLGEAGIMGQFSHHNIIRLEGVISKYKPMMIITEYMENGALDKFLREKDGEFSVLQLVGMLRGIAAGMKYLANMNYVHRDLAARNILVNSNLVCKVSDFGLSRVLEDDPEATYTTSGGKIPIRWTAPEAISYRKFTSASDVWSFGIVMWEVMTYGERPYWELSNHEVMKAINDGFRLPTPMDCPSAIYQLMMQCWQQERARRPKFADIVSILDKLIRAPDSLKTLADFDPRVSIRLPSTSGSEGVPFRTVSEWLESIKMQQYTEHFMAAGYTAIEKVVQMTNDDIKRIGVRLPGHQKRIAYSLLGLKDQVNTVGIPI
T1 sequence (P00533 669-1210): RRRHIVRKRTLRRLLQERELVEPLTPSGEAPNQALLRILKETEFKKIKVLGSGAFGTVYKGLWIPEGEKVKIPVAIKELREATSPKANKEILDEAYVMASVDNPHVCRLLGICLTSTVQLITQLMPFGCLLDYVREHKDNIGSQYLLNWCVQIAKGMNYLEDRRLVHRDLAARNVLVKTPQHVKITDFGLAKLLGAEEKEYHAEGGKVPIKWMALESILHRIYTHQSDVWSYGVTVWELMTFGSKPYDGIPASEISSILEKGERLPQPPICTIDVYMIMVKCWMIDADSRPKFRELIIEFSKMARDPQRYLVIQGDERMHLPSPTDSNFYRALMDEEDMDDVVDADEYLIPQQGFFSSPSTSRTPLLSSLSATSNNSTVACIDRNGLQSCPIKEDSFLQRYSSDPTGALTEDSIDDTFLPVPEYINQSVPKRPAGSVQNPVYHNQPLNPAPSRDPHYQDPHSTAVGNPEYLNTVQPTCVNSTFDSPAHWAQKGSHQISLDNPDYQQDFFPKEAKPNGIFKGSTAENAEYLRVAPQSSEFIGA
T2 sequence (P35968 834-1162 limits assumed): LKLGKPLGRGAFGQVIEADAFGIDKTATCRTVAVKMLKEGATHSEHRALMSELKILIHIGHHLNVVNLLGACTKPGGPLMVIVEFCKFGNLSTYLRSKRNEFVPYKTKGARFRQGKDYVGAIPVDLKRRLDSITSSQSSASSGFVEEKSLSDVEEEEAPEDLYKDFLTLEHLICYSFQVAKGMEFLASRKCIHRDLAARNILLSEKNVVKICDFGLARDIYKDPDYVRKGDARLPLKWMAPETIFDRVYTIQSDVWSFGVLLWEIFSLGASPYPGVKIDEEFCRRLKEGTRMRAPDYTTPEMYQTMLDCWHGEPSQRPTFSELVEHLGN

With `COc1cc2ncc(C#N)c(Nc3cccc(Br)c3)c2cc1NC(=O)C=CCN1CCOCC1` [Example 200, 4-Morpholin-4-yl-but-2-enoic acid [4-(3-bromo-phenylamino)-3-cyano-7-methoxy-quinolin-6-yl]-amide], the IC50 in data set [1] was above 100 µM; in [2] it was 38.3 µM; in [3] (read-out: IC50 SW620), above 5 µg/mL.

On to `COc1ccc2ncc(C#N)c(Nc3ccc(C)c(O)c3)c2c1` [Example 284, 4-(3-Hydroxy-4-methyl-phenylamino)-6-methoxy-quinoline-3-carbonitrile], for which the IC50 in data set [1] was 4 µM; in data set [2], 32.8 µM.

In turn, `CN1CCN(CC#CC(=O)Nc2ccc3ncc(C#N)c(Nc4cccc(Br)c4)c3c2)CC1` [Example 190, N-[4-[(3-Bromophenyl)amino]-3-cyano-6-quinolinyl]-4-(N-methylpiperazino)-2-butynamide] came in with an IC50 in data set [2] of 39.7 µM.

As for `COc1ccc2c(Nc3cccc(Br)c3)c(C#N)cnc2c1` [Example 3, 4-[(3-Bromophenyl)amino]-7-methoxy-3-guinolinecarbonitrile], the IC50 in data set [1] is above 100 µM; in [2], 28.2 µM.

In the case of `CCN(CC)CC=CC(=O)Nc1ccc2ncc(C#N)c(Nc3cccc(Br)c3)c2c1` [Example 100, 4-Diethylamino-but-2-enoic acid [4-(3-bromophenylamino)-3-cyano-quinolin-6-yl]-amide], the IC50 came out at 0.1 µg/mL (≈ 0.209 µM) in [4] (read-out: IC50 SKBR3); 0.1 µg/mL (≈ 0.209 µM) in data set [5] (read-out: IC50 A431); 20 µM in data set [1]; 41.8 µM in data set [2]; 0.8 µg/mL (≈ 1.67 µM) in [3] (read-out: IC50 SW620).

As for `COc1cc2ncc(C#N)c(Nc3ccc(F)c(Cl)c3)c2cc1NC(=O)C=CCN1CCOCC1` [Example 205, 4-Morpholin-4-yl-but-2-enoic acid [4-(3-chloro-4-fluorophenylamino)-3-cyano-7-methoxy-quinolin-6-yl]-amide], in [1], the IC50 was above 100 µM. In addition, in [6] (setting [11]), the “%T/C Day 7” value turned out to be 30%, the “%T/C Day 14” value came to 25%, the “%T/C Day 21” value stood at 38% and the “%T/C Day 28” value is reported as 61%. Also, the “S/T = No. Survivors/No. Treated” value in data set [6] (setting [11]) is listed as 5/5. In addition, in data set [6] (setting [12]), the “%T/C Day 7” value was 23%, the “%T/C Day 14” value stood at 19%, the “%T/C Day 21” value was determined as 23% and the “%T/C Day 28” value is listed as 29%. The “S/T = No. Survivors/No. Treated” value in data set [6] (setting [12]) is given as 5/5. The compound further had an IC50 in data set [2] of 40.4 µM.

With `C=CC(=O)Nc1ccc2ncc(C#N)c(Nc3ccc(F)c(F)c3)c2c1` [Example 154, N-{3-Cyano-4-[(3,4-difluorophenyl)amino]-6-quinolinyl]-2-propenamide], the IC50 in data set [7] is 0.44 µg/mL (≈ 1.26 µM); in data set [4] (setting [13]) it was 0.05 µg/mL (≈ 0.143 µM); in data set [5] (setting [14]) it was 0.07 µg/mL (≈ 0.2 µM); in data set [8], 0.15 µM; in data set [1] it was 20 µM; in data set [9] it was above 85.6 µM. Moreover, the IC50 in [10] worked out at 2.57 µg/mL (≈ 7.34 µM); in data set [3] (setting [15]), 0.55 µg/mL (≈ 1.57 µM).

Turning to `N#Cc1cnc2ccc(NC(=O)C=CCN3CCOCC3)cc2c1Nc1ccc(F)c(Cl)c1` [Example 147, N-{4-[(3-Chloro-4-fluorophenyl)amino]-3-cyano-6-quinolinyl} -4-morpholino-2-butenamide], the IC50 is 80 µM in [1] and 43.1 µM in data set [2].

For `CC(C)N(C)CC#CC(=O)Nc1ccc2ncc(C#N)c(Nc3cccc(Br)c3)c2c1` [Example 191, N-[4-[(3-Bromophenyl)amino]-3-cyano-6-quinolinyl]-4-(N-isopropyl-N-methylamino)-2-butynamide], the IC50 in data set [4] (read-out: IC50 SKBR3) stood at 0.06 µg/mL (≈ 0.126 µM); in data set [2], 42 µM.

For the compound `COc1ccc2ncc(C#N)c(Nc3ccc(Cl)cc3F)c2c1` [Example 283, 4-(4-Chloro-2-fluoro-phenylamino)-6-methoxy-quinoline-3-carbonitrile], the IC50 was above 100 µM in [1] and 9.15 µM in [2].

As to `N#Cc1cnc2ccc(NC(=O)CCl)cc2c1Nc1cccc(Br)c1` [Example 19, N-[4-[(3-Bromophenyl)amino]-3-cyano-6-quinolinyl]-2-chloroacetamide], the IC50 in data set [1] stood at 29 µM; in [2], 24.1 µM.

Consider `CCOc1cc2ncc(C#N)c(Nc3cccc(Br)c3)c2cc1NC(=O)C=CCN(CC)CC` [Example 217, 4-Diethylamino-but-2-enoic acid [4-(3-bromo-phenylamino)-3-cyano-7-ethoxy-quinolin-6-yl]-amide], for which, in [6] (setting [16]), the “%T/C Day 7” value is recorded as 25%, the “%T/C Day 14” value was determined as 36%, the “%T/C Day 21” value is 51% and the “%T/C Day 28” value was found to be 56%. Besides, in data set [6] (setting [16]), the “S/T = No. Survivors/No. Treated” value was 5/5. In [6] (setting [17]), the “%T/C Day 7” value came to 30%, the “%T/C Day 14” value was determined as 33%, the “%T/C Day 21” value is reported as 43% and the “%T/C Day 28” value came out at 42%. In data set [6] (setting [17]), the “S/T = No. Survivors/No. Treated” value was 5/5. In data set [2], this compound gave an IC50 of 0.115 µM.

Take `N#Cc1cnc2cc(O)c(O)cc2c1Nc1cccc(Br)c1` [Example 39, 4-[(3-Bromophenyl)amino]-6,7-dihydroxy-3-quinolinecarbonitrile]: the figures for the IC50 in data set [1] and in data set [2] were 40 µM and 28.1 µM, respectively.

As for `N#Cc1cnc2ccc(NC(=O)C=CCN3CCOCC3)cc2c1Nc1ccc(F)c(Br)c1` [Example 174, N-{4-[(3-Bromo-4-fluorophenyl)amino]-3-cyano-6-quinolinyl] -4-morpholino-2-butenamide], the IC50 in data set [1] is 2.5 µM; in [2], 39.2 µM; in data set [3] (read-out: IC50 SW620), above 5 µg/mL.

As for `COc1cc2c(Nc3ccc(Cl)cc3F)c(C#N)cnc2cc1OCCCN1CCOCC1` [Example 81, 4-(4-Chloro-2-fluoro-phenylamino)-6-methoxy-7-(3-morpholin-4-yl-propoxy)-quinoline-3-carbonitrile], the figures for the IC50 in [1] and in data set [2] were 0.1 µM and 0.425 µM, respectively.

As to `COc1cc2ncc(C#N)c(Nc3ccc(F)c(Br)c3)c2cc1NC(=O)C=CCN(C)C` [Example 208, 4-Dimethylamino-but-2-enoic acid [4-(3-bromo-4-fluorophenylamino)-3-cyano-7-methoxy-quinolin-6-yl]-amide], the IC50 in [4] (setting [13]) is 0.038 µg/mL (≈ 0.0763 µM); in [5] (setting [14]), 0.067 µg/mL (≈ 0.134 µM); in data set [8] it was 0.0015 µM; in data set [1], 13 µM; in [9], 20.1 µM; in [3] (setting [15]) it was 0.453 µg/mL (≈ 0.909 µM). Also, the “%T/C Day 7” value was 14% in data set [6] (setting [16]) and 6% in data set [6] (setting [17]). Moreover, the “%T/C Day 14” value in data set [6] (setting [16]) is listed as 15%; in data set [6] (setting [17]) it was 6%. Also, the entries for the “%T/C Day 21” value in data set [6] (setting [16]) and in data set [6] (setting [17]) were 26% and 8%, respectively. Further, the entries for the “%T/C Day 28” value in data set [6] (setting [16]) and in data set [6] (setting [17]) were 32% and 10%, respectively. In addition, the “S/T = No. Survivors/No. Treated” value in data set [6] (setting [16]) and in data set [6] (setting [17]) was 5/5 throughout.

For `N#Cc1cnc2cc3c(cc2c1Nc1cccc(Br)c1)OCO3` [Example 40, 8-[(3-Bromophenyl)amino]-[1,3]-dioxolo[4,5-g]quinoline-7-carbonitrile], the values for the IC50 in [1] and in [2] were above 100 µM and 27.2 µM, respectively.

These data come from patent EP0973746B1, “SUBSTITUTED 3-CYANO QUINOLINES” (Wyeth Holdings Corporation, priority 1997, dated 1998).
